Data as given in US8937058B2, “17-hydroxy-19-nor-21-carboxylic acid-steroid γ-lactone derivative, use thereof, and medicament containing the derivative” (priority 2007, dated 2015).
Where two headings read alike, the source gives them in different places.

Key:
[1] = biological target: fusion protein from the PR-ligand-binding domain and a Gal4-transactivation domain (Homo sapiens (Human), UniProt P06401); assay: cell-based; conditions: for Progesterone receptor Agonism EC50 / Progesterone receptor Agonism efficacy: in-vitro transactivation, CHO K1 reporter cells; for Progesterone receptor Agonism EC50: 16 hours
Chain of fusion protein from the PR-ligand-binding domain and a Gal4-transactivation domain (P06401 679-913): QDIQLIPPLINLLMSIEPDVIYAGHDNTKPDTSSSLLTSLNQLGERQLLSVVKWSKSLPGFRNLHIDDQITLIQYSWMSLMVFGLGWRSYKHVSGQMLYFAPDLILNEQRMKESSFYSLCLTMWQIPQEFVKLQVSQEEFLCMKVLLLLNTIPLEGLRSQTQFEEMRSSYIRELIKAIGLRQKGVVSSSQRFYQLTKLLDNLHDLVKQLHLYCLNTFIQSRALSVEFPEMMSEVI
Description: 4. Determination of Progestational Action by Means of Transactivation Tests:
The test compounds were added eight hours later, and the cells were incubated with the compounds for 16 hours. The tests were carried out in triplicate. At the end of incubation the medium containing the effector was removed and replaced with lysis buffer. After luciferase assay substrate (Promega, #E1501) had been added, the 96-well plates were then put in a microplate luminometer (Pherastar, BMG Labtech), and the luminescence was measured. The IC50 values were evaluated using software for calculating dose-effect relations.

[2] = biological target: T1, mineralocorticoid receptor (Homo sapiens (Human), UniProt P08235); assay: Antimineralocorticoid action by transactivation test (MDCK luciferase reporter cells); assay type: cell-based; conditions: in-vitro transactivation, 1 nM aldosterone; for IC50: read-out: Mineralocorticoid receptor Antagonism IC50
T1 sequence (P08235 whole entry): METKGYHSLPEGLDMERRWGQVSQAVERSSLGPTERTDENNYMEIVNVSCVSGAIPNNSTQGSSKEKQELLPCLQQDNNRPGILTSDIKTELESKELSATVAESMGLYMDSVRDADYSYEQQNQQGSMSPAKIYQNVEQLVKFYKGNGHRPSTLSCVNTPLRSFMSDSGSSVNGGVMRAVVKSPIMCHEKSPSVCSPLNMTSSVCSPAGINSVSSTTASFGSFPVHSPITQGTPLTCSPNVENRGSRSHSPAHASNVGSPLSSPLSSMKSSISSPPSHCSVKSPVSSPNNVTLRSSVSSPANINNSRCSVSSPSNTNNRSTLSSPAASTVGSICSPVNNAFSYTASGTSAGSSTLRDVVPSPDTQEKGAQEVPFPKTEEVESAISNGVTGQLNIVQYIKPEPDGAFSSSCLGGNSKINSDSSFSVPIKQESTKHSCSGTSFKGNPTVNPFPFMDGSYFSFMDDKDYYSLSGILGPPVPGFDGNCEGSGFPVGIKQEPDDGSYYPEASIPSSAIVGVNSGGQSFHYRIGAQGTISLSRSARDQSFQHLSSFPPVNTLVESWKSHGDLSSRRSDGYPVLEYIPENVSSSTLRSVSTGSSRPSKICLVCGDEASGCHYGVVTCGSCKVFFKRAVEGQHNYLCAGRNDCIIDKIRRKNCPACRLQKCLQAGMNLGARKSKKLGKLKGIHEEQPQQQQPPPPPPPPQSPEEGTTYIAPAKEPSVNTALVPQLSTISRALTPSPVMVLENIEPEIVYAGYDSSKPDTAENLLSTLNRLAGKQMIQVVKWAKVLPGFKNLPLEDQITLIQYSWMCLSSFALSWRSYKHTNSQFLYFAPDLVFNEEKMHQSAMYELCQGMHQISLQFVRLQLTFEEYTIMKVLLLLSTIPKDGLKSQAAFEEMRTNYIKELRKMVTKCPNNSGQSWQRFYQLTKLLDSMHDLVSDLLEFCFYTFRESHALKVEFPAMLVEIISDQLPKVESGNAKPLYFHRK
Description: 5. Determination of Antimineralocorticoid Action by Means of Transactivation Tests:
The antimineralocorticoid activity of the test substances was determined as for the transactivation tests described above.
The following modifications were undertaken: In this case reporter cell lines were used (MDCK cells) that express the human mineralocorticoid receptor, and transiently contain a reporter construct that contains luciferase under the control of a steroid hormone-responsive promoter.
For determination of antimineralocorticoid efficacy, 1 nM aldosterone (SIGMA A-6628, Lot 22H4033) was added to the cells, to achieve almost maximum stimulation of the reporter gene. Inhibition of the effect indicated a mineralocorticoid-antagonistic action of the substances (Table 2; for comparison, corresponding values for drospirenone (A)).

androgen receptor [3] = biological target: T2, androgen receptor (Homo sapiens (Human), UniProt P10275); assay: cell-based; conditions: for Androgen receptor Agonism efficacy / Androgen receptor Antagonism efficacy: in-vitro transactivation, PC3 cells; for Androgen receptor Antagonism efficacy: 0.05 nM R1881
T2 sequence (P10275 whole entry, species assumed): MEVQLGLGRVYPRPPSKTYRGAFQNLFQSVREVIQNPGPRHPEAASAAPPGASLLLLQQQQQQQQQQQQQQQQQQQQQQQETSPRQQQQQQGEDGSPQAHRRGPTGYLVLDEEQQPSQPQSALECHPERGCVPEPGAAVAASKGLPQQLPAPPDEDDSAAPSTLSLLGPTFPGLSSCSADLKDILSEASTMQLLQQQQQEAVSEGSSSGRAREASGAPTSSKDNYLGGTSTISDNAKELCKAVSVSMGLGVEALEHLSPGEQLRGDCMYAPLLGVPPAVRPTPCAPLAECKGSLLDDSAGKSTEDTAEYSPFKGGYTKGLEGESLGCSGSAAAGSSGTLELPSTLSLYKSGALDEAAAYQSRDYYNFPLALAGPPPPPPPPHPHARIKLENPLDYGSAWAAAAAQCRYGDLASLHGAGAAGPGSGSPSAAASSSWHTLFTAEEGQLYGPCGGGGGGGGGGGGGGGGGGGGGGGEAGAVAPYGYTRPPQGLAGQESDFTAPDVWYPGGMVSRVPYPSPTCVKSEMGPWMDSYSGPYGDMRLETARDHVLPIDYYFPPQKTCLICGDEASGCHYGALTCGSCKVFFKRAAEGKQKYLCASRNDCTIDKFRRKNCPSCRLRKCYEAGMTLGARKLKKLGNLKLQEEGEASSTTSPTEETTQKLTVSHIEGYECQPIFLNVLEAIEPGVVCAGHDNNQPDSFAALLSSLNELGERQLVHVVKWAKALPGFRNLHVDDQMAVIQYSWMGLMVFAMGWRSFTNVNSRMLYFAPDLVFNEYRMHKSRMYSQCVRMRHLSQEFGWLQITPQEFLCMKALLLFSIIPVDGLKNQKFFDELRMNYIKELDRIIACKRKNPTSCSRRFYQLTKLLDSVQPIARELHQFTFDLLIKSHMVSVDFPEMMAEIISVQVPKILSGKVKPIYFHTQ
Description: 6. Determination of Androgenic/Antiandrogenic Action by Means of Transactivation Tests:
The androgenic/antiandrogenic action of the test substances was determined as for the transactivation tests described above.
The following modifications were made: In this case reporter cell lines were used (PC3 cells) that express the androgen receptor, and a reporter construct that contains luciferase under the control of a steroid hormone-responsive promoter.
For determination of the antiandrogenic efficacy, 0.05 nM R1881 was added to the cells, in order to achieve almost maximum stimulation of the reporter gene.

[4] = biological target: T1, mineralocorticoid receptor; assay: Mineralocorticoid receptor binding test (displacement of 3H-aldosterone, cytosol from Hi5 insect cells); conditions: reference substance 3H-aldosterone
Description: 2. Mineralocorticoid Receptor Binding Test:
The test was carried out as in 1., with the following modifications: cytosol from mineralocorticoid receptor-expressing insect cells (Hi5) was used, and the reference substance was ^3H-aldosterone.

androgen receptor [5] = biological target: T2, androgen receptor; conditions: for IC50: read-out: Androgen receptor IC50, receptor binding, 3H-testosterone displacement; for Androgen receptor Competition factor: reference substance 3H-testosterone
Description: 3. Androgen Receptor Binding Test:
The test was carried out as in 1., with the following modifications: cytosol from androgen receptor-expressing insect cells (Hi5) was used, and the reference substance was ^3H-testosterone.

progesterone receptor = progesterone receptor (Homo sapiens (Human), UniProt P06401); conditions: for Progesterone receptor (PR) Competition factor: CF of 1 = affinity of progesterone, CF >1 lower affinity; for CF PR/CF MR: ratio of the competition factors CF(PR) and CF(MR); for IC50: read-out: Progesterone receptor (PR) IC50, receptor binding, 3H-progesterone displacement
Chain of progesterone receptor (P06401 whole entry, species assumed): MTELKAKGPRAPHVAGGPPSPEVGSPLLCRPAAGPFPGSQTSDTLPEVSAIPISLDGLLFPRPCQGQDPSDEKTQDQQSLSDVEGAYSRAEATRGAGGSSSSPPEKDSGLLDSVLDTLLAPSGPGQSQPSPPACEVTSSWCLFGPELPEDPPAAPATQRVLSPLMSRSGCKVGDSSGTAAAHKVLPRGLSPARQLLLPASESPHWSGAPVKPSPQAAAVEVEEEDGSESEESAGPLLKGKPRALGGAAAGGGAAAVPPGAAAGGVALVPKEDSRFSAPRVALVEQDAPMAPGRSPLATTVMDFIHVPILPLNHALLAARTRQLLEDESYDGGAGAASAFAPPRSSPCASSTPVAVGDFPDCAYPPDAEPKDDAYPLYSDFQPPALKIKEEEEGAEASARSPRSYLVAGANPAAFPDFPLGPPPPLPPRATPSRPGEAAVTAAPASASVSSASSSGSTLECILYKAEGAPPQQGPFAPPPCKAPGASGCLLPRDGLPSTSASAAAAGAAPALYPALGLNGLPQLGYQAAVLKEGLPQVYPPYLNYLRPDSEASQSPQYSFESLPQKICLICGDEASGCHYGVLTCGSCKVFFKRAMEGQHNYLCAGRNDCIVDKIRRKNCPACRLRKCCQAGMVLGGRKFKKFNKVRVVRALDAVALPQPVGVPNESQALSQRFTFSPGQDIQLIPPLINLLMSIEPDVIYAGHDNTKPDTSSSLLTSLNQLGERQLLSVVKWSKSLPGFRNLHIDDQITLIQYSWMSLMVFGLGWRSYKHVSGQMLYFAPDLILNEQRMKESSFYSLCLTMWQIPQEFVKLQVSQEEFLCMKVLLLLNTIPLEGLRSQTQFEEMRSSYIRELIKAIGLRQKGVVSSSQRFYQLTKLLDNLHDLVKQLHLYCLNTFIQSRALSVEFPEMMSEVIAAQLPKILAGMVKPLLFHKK
Description: Progesterone Receptor Binding Test:
Using cytosol from progesterone receptor-expressing insect cells (Hi5), competitive binding to the progesterone receptor was determined from the ability to displace ^3H-progesterone as reference substance from the receptor.

Structure (SMILES) | Progesterone receptor Agonism EC50 [1] | Mineralocorticoid receptor Antagonism efficacy [2] [%] | IC50 [2] [nM] | EC50 (androgen receptor [3]) [nM] | IC50 (androgen receptor [3]) [nM] | Androgen receptor Agonism efficacy (androgen receptor [3]) [%] | Androgen receptor Antagonism efficacy (androgen receptor [3]) [%] | Mineralocorticoid receptor (MR) Competition factor [4] | IC50 (androgen receptor [5]) [nM] | Androgen receptor Competition factor (androgen receptor [5]) | Progesterone receptor (PR) Competition factor (progesterone receptor) | CF PR/CF MR (progesterone receptor) | IC50 (progesterone receptor) [nM] | EC50 [1] [nM] | Progesterone receptor Agonism efficacy [1] [%]
CC[C@]12CC[C@H]3[C@@H]([C@H](C)CC4=CC(=O)CC[C@@H]43)[C@@H]1CC[C@@]21C=CC(=O)O1 (stereo in doubt) [Example 8A, 17β-Hydroxy-7α,18-dimethyl-19-nor-17α-pregna-4,20(Z)-dien-3-one-21-carboxylic acid γ-lactone] | inactive | 113.8 | 11 | 1.7 | 1000 | 78.75 | 5 | 1.0 | 43 | 1.3 | 5.95 | 5.95 | 160 |  | 
CC[C@@H]1CC2=CC(=O)CC[C@@H]2[C@H]2CC[C@@]3(C)[C@@H](CC[C@@]34C=CC(=O)O4)[C@H]12 (stereo in doubt) [Example 3A, 17β-Hydroxy-7α-ethyl-19-nor-17α-pregna-4,20(Z)-dien-3-one-21-carboxylic acid γ-lactone] |  | 55.9 | 360 | 25 | 11 | 30.25 | 41.26 | 8.7 | 89 | 2.8 | 54.22 | 6.23 | 1300 | 780 | 16.2
C=C[C@@H]1CC2=CC(=O)CC[C@@H]2[C@H]2CC[C@@]3(C)[C@@H](CC[C@@]34C=CC(=O)O4)[C@@H]21 (stereo in doubt) [Example 4A, 17β-Hydroxy-7α-vinyl-19-nor-17α-pregna-4,20(Z)-dien-3-one-21-carboxylic acid γ-lactone] |  | 120.0 | 28 | 13 | 1000 | 53.6 | 5 | 18.7 | 130 | 4.7 | 27.47 | 1.47 | 760 | 140 | 67.5
CC[C@@H]1CC2=CC(=O)CC[C@@H]2[C@H]2CC[C@@]3(CC)[C@@H](CC[C@@]34C=CC(=O)O4)[C@H]12 (stereo in doubt) [Example 9A, 17β-Hydroxy-7α-ethyl-18-methyl-19-nor-17α-pregna-4,20(Z)-dien-3-one-21-carboxylic acid γ-lactone] | inactive | 97.6 | 130 | 5.1 | 1000 | 63.33 | 5 | 1.6 | 76 | 2.3 | 25.12 | 15.70 | 670 |  | 
C=C[C@@H]1CC2=CC(=O)CC[C@@H]2[C@H]2CC[C@@]3(CC)[C@@H](CC[C@@]34C=CC(=O)O4)[C@@H]21 (stereo in doubt) [Example 10A, 17β-Hydroxy-7α-vinyl-18-methyl-19-nor-17α-pregna-4,20(Z)-dien-3-one-21-carboxylic acid γ-lactone] |  | 80.0 | 940 | 1.3 | 1000 | 74.78 | 5 | 5.1 | 50 | 1.8 | 18.90 | 3.71 | 450 | 140 | 52.4
CC[C@]12CC[C@H]3[C@@H]([C@H](C4CC4)CC4=CC(=O)CC[C@@H]43)[C@@H]1CC[C@@]21C=CC(=O)O1 (stereo in doubt) [Example 11A, 17β-Hydroxy-7α-cyclopropyl-18-methyl-19-nor-17α-pregna-4,20(Z)-dien-3-one-21-carboxylic acid γ-lactone] |  | 88.8 | 230 | 10 | 16 | 41.38 | 34.45 | 2.4 | 94 | 3.4 | 21.03 | 8.76 | 500 | 120 | 47.7
